Where “and” joins values, the source holds several entries; their conditions need not be identical. Equal values may be shown once. Starred links: 1 amine or outer side, 2 acyl side, 3 side chain; linkers in the order of their positions; H or OH if unused. Positions of bridges follow the written chain, without caps; N, C: chain ends. Non-standard residues stand in square brackets, D forms with d. Residues, ends and D or L forms follow the SMILES beside them. *: point of attachment. Butanoyl(4-(4-I-phenyl)) = O=C(CCCc1ccc(I)cc1)*; TBMB = c1c(C[*:1])cc(C[*:3])cc1C[*:2]; Palmitoyl = CCCCCCCCCCCCCCCC(=O)*; Benzoyl(3-I) = O=C(c1cccc(I)c1)*; 4Abz = Nc1ccc(C(=O)O)cc1
Tests used:
[1] = target: T1, human serum albumin (HSA) (Homo sapiens, UniProt P02768); assay: Albumin binding, size-exclusion spin column elution after incubation with HSA; assay type: in vitro ADME; details: 37 kBq in 50 μL PBS(–) incubated 37 °C 10 min with 200 μL HSA 45 mg/mL in PBS(–); Sephadex G-50 Fine spin column, 2000 rpm 2 min; γ-counter; eluted/added radioactivity × 100
T1 construct: purchased Wako Pure Chemical Industries
T1 sequence (P02768 25-609): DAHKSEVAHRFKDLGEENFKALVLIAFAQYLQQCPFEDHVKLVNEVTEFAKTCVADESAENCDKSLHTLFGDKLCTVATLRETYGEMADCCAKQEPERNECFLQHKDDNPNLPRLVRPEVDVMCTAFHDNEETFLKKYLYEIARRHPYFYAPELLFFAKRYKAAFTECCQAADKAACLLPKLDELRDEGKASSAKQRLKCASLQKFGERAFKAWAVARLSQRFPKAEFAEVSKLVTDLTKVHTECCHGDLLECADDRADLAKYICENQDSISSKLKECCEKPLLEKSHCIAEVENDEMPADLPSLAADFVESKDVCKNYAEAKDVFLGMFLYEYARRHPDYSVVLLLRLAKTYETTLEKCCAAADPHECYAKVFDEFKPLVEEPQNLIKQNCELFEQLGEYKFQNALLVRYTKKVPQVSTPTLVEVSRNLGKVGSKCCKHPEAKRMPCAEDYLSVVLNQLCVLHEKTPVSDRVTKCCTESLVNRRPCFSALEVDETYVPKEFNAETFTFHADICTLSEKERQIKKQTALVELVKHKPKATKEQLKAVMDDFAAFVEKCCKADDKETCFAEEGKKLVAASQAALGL
Method: (§1) To assess albumin binding, mouse plasma was obtained by centrifugation of whole blood from male ddY mice (9 weeks old). [^125I]bcRGD, [^125I]bcRGDpal, [^125I]bcRGDiba, or [^125I]bcRGDdimer (37 kBq) in 50 μL PBS(–) was incubated at 37 °C for 10 min with 200 μL of PBS(–), mouse plasma, or human serum albumin (HSA, 45 mg/mL in PBS(–); Wako Pure Chemical Industries, Osaka, Japan). The mixtures were applied to gel filtration spin columns (Sephadex G-50 Fine; Cytiva, Tokyo, Japan), centrifuged (2000 rpm, 2 min), and radioactivity in the eluted fraction was measured with a γ-counter. The high molecular weight fraction was calculated as the elution ratio = (radioactivity in elution)/(added radioactivity) × 100 (%).

[2] = target: T2, His-tagged integrin α5β1 (Homo sapiens, UniProt P05556+P08648); assay: In vitro selectivity assay, His-tag Dynabeads pulldown, integrin α5β1; assay type: binding; details: cyclo-(RGDfK) 25 μM blocking; 2 h incubation at 37 °C
T2 construct: purchased Sino Biological CT014-H2508H
T2 sequence (P08648 42-995 limits assumed): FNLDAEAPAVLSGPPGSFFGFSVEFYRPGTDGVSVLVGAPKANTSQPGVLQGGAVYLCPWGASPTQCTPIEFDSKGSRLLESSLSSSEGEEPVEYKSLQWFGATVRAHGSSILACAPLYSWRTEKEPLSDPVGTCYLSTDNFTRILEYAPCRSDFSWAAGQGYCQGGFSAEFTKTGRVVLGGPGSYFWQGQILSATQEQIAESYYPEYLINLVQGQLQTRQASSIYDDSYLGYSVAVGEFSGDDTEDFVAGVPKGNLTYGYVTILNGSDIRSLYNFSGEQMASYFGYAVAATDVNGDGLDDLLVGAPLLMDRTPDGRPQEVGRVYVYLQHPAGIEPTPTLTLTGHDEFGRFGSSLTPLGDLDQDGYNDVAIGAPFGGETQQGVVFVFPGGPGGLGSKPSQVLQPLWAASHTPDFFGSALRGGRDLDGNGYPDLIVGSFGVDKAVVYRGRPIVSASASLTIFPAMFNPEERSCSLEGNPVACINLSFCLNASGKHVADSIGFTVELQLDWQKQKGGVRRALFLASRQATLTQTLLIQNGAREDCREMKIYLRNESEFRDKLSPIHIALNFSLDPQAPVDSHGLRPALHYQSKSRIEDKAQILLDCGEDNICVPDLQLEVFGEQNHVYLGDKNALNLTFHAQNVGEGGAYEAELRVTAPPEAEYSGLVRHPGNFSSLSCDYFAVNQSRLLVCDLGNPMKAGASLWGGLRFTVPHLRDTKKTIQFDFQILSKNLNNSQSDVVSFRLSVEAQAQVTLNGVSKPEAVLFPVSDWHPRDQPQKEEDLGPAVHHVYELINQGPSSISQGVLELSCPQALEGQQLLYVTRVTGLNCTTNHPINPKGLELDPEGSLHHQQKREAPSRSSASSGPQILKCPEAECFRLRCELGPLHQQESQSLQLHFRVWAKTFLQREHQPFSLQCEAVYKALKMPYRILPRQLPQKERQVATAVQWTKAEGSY
T2 sequence (P05556 21-728 limits assumed): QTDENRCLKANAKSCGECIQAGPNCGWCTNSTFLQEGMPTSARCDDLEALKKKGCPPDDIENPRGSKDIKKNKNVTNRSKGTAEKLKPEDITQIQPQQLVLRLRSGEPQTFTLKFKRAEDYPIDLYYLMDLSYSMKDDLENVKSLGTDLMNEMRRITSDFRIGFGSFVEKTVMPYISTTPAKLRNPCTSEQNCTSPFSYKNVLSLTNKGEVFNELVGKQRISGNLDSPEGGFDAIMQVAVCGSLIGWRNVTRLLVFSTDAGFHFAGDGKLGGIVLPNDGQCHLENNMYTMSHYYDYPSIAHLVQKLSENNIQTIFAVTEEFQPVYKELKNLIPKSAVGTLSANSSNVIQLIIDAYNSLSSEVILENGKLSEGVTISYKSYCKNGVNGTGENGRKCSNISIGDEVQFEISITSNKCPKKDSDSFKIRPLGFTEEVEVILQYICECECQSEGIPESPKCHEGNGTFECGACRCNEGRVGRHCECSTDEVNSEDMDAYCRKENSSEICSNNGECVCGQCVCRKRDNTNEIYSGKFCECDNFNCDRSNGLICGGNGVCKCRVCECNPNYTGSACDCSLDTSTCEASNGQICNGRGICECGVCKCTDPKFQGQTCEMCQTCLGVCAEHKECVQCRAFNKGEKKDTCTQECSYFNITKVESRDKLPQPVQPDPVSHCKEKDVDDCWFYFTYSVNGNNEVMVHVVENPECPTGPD
Method: (§2) Binding assays were conducted following our previously reported method, using the Dynabeads™ His-Tag Isolation and Pulldown protocol (Thermo Fisher Scientific, Tokyo, Japan). Briefly, [^125I]bcRGDpal or [^125I]bcRGDiba (10 kBq/sample) was incubated at 37 °C for 2 h in 200 μL of incubation buffer (3.25 mM sodium phosphate, 70 mM NaCl, 0.01% Tween 20, pH 7.4) with 10 pmol of His-tagged integrin αVβ3, αVβ5, or α5β1 proteins (αVβ3: IT3-H52E3, ACRO Biosystems, Newark, DE, USA; αVβ5: 2528-AV, R&D Systems, Minneapolis, MN, USA; α5β1: CT014-H2508H, Sino Biological, Beijing, China). For the inhibition group, cyclo(RGDfK) (25 μM, S7834, Selleck, Houston, TX, USA) was preincubated with the integrin protein for 30 min at 37 °C. Next, A 2× binding buffer (100 mM sodium phosphate, 600 mM NaCl, 0.01% Tween 20, pH 8.0) was mixed with the solution at a 1:1 volume ratio and incubated with 5 μL of magnetic beads at 37 °C for 10 min to enable protein immobilization. Following immobilization, the beads were rinsed three times with the binding buffer, and radioactivity was measured using a NaI well-type scintillation counter (2480 Wizard2; PerkinElmer Japan, Yokohama, Japan). Protein binding was expressed as %dose/nmol protein.

[3] = Octanol–water distribution coefficient (log D); assay type: physicochemical; details: shake-flask 1-octanol/PBS(–) pH 7.4, 1.0 mL each (1:1), 40 kBq, vortexed 2 min, centrifuged 5000 rpm 5 min, radioactivity by γ-counter, mean of n = 4
Method: For log D determination, [^125I]bcRGD, [^125I]bcRGDpal, [^125I]bcRGDiba, or [^125I]bcRGDdimer (40 kBq) was dissolved in 1.0 mL PBS(–) (pH 7.4) and mixed with 1.0 mL 1-octanol (1:1, v/v). The mixture was vortexed for 2 min and centrifuged at 5000 rpm for 5 min. Radioactivity in 0.5 mL of each phase was measured using a γ-counter, and log D values were calculated based on the radioactivity distribution (n = 4).

[4] = target: T3, His-tagged integrin αVβ5 (Homo sapiens, UniProt P06756+P18084); assay: In vitro selectivity assay, His-tag Dynabeads pulldown, integrin αVβ5; assay type: binding; details: cyclo-(RGDfK) 25 μM blocking; 2 h incubation at 37 °C
T3 construct: purchased R&D Systems 2528-AV
T3 sequence (P06756 31-992 limits assumed): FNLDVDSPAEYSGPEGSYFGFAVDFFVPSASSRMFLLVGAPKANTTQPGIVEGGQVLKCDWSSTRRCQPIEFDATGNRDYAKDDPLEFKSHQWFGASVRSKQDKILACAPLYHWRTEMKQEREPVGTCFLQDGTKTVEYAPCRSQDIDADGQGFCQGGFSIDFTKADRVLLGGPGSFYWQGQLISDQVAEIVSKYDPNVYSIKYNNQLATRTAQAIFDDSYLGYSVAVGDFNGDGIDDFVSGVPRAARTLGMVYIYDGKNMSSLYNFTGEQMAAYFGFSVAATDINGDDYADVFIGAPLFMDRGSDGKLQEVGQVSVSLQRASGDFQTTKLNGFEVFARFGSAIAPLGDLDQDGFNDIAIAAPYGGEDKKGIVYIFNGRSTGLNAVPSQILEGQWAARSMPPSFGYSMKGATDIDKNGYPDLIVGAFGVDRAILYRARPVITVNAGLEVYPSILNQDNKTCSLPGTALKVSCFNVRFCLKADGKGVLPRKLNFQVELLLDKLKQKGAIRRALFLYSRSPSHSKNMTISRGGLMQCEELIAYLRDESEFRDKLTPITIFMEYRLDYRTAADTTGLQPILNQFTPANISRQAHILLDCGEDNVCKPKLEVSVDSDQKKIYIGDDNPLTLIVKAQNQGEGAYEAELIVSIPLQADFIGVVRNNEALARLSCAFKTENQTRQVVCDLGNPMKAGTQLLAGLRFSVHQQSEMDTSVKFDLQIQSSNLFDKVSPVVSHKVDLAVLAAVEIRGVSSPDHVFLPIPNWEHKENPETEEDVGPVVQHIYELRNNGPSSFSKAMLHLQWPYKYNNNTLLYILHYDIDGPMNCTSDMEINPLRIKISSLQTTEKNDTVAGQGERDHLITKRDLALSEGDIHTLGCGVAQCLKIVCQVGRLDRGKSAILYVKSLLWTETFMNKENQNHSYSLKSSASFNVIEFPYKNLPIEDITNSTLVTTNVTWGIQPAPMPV
T3 sequence (P18084 24-719 limits assumed): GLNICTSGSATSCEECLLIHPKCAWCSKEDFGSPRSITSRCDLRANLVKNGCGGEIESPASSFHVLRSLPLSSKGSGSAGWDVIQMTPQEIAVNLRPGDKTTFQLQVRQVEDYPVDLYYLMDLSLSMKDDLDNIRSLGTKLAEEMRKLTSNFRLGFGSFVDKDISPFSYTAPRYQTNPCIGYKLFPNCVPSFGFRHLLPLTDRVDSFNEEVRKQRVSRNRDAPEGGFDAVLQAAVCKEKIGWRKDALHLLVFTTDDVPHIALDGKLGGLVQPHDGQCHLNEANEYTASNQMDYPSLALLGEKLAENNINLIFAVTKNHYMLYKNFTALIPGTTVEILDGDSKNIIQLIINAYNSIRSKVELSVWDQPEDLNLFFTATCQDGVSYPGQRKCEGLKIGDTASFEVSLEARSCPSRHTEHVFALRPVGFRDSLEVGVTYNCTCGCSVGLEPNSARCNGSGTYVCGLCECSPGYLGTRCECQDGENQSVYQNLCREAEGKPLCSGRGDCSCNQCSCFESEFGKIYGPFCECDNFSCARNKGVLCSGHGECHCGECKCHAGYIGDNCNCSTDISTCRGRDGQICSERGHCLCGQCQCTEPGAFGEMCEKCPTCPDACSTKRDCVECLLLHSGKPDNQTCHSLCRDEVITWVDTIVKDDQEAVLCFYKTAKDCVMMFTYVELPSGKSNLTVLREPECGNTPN
Method: as §2

[5] = Albumin binding, size-exclusion spin column elution after incubation with mouse plasma; assay type: in vitro ADME; details: 37 kBq in 50 μL PBS(–) incubated 37 °C 10 min with 200 μL mouse plasma (male ddY); Sephadex G-50 Fine spin column, 2000 rpm 2 min; γ-counter; eluted/added radioactivity × 100
Method: as §1

[6] = target: T4, His-tagged integrin αVβ3 (Homo sapiens, UniProt P05106+P06756); assay: In vitro selectivity assay, His-tag Dynabeads pulldown, integrin αVβ3; assay type: binding; details: for Radioactivity accumulation in αVβ3 protein: 10 kBq probe, 10 pmol His-tagged integrin, 37 °C 2 h, pH 7.4 buffer, without cyclo-(RGDfK); for Radioactivity accumulation in αVβ3 protein with cyclo-(RGDfK) blocking versus free: cyclo-(RGDfK) 25 μM preincubated 30 min at 37 °C, 2 h incubation, unpaired t-test p < 0.001
T4 construct: purchased ACRO Biosystems IT3-H52E3
T4 sequence (P06756 31-992 limits assumed): as the sequence (P06756 31-992 limits assumed) above
T4 sequence (P05106 27-718 limits assumed): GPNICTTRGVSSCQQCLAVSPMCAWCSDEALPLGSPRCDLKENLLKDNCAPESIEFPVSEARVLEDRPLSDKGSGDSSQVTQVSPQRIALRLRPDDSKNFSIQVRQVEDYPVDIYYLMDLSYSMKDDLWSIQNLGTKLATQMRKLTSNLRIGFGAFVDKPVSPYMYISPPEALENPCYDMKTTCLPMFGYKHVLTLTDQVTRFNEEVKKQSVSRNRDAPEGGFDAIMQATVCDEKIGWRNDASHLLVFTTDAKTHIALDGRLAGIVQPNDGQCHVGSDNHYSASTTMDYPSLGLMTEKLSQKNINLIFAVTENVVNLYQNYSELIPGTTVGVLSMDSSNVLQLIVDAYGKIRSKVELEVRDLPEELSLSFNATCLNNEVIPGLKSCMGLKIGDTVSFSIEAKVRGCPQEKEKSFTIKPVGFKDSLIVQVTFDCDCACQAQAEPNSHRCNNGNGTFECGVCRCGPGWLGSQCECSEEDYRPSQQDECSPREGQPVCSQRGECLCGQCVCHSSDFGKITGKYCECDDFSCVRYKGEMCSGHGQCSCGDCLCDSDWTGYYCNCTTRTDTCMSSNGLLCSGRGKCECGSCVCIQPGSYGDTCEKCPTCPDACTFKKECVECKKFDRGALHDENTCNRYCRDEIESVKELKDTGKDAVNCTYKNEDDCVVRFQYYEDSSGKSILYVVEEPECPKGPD
Method: as §2

Row | Structure (SMILES) | Elution rate from size-exclusion resin (high molecular weight fraction), HSA [1] | Radioactivity accumulation in α5β1 protein, treatment versus inhibitor group [2] | logD [3] | Radioactivity accumulation in αVβ5 protein, treatment versus inhibitor group [4] | Elution rate from size-exclusion resin (high molecular weight fraction), mouse plasma [5] | Radioactivity accumulation in αVβ3 protein [6] | Radioactivity accumulation in αVβ3 protein with cyclo-(RGDfK) blocking versus free [6]
1 | CCCCCCCCCCCCCCCC(=O)N[C@@H](CCCCNC(=O)c1cccc(I)c1)C(=O)N1CCC[C@H]1C(=O)N1CCC[C@H]1C(=O)N1CCC[C@H]1C(=O)N[C@@H](CO)C(=O)NCC(=O)Nc1ccc(C(=O)N[C@@H](CO)C(=O)NCC(=O)N[C@H]2CSCc3cc4cc(c3)CSC[C@@H](NC(=O)[C@H](CCC(N)=O)NC(=O)[C@@H]3CCCN3C(=O)[C@H](Cc3c[nH]cn3)NC2=O)C(=O)N[C@@H](CCCNC(=N)N)C(=O)NCC(=O)N[C@@H](CC(=O)O)C(=O)N[C@@H](C(N)=O)CSC4)cc1 [[^125I]bcRGDpal] (Palmitoyl-K(Benzoyl(3-I))PPPSG[4Abz]SGCHPQ[dC]RGD[dC]-NH2; linker 10-14-18 via TBMB) | 80% | No differences | 1.71 and > 1 | No differences | > 80% | high radioactivity accumulation | significantly inhibited
2 | N=C(N)NCCC[C@@H]1NC(=O)[C@H]2CSCc3cc(cc(c3)CSC[C@H](C(N)=O)NC(=O)[C@H](CC(=O)O)NC(=O)CNC1=O)CSC[C@H](NC(=O)CNC(=O)[C@H](CO)NC(=O)c1ccc(NC(=O)CNC(=O)[C@H](CO)NC(=O)[C@@H]3CCCN3C(=O)[C@@H]3CCCN3C(=O)[C@@H]3CCCN3C(=O)[C@H](CCCCNC(=O)c3cccc(I)c3)NC(=O)CCCc3ccc(I)cc3)cc1)C(=O)N[C@@H](Cc1c[nH]cn1)C(=O)N1CCC[C@H]1C(=O)N[C@@H](CCC(N)=O)C(=O)N2 [[^125I]bcRGDiba] ({Butanoyl(4-(4-I-phenyl))}-K(Benzoyl(3-I))PPPSG[4Abz]SGCHPQ[dC]RGD[dC]-NH2; linker 10-14-18 via TBMB) | 60% | No differences | -0.97 | No differences | > 80% | high radioactivity accumulation | significantly inhibited
3 | N=C(N)NCCC[C@@H]1NC(=O)[C@H]2CSCc3cc(cc(c3)CSC[C@H](C(N)=O)NC(=O)[C@H](CC(=O)O)NC(=O)CNC1=O)CSC[C@H](NC(=O)CNC(=O)[C@H](CO)NC(=O)c1ccc(NC(=O)CNC(=O)[C@H](CO)NC(=O)[C@@H]3CCCN3C(=O)[C@@H]3CCCN3C(=O)[C@@H]3CCCN3C(=O)CCc3cn(CC[C@H](NC(=O)CCNC(=O)c4cccc(I)c4)C(=O)N4CCC[C@H]4C(=O)N4CCC[C@H]4C(=O)N4CCC[C@H]4C(=O)N[C@@H](CO)C(=O)NCC(=O)Nc4ccc(C(=O)N[C@@H](CO)C(=O)NCC(=O)N[C@H]5CSCc6cc7cc(c6)CSC[C@@H](NC(=O)[C@H](CCC(N)=O)NC(=O)[C@@H]6CCCN6C(=O)[C@H](Cc6c[nH]cn6)NC5=O)C(=O)N[C@@H](CCCNC(=N)N)C(=O)NCC(=O)N[C@@H](CC(=O)O)C(=O)N[C@@H](C(N)=O)CSC7)cc4)nn3)cc1)C(=O)N[C@@H](Cc1c[nH]cn1)C(=O)N1CCC[C@H]1C(=O)N[C@@H](CCC(N)=O)C(=O)N2 [[^125I]bcRGDdimer] | 6% |  | -1.98 |  | 22% |  | 

Reference: paper PMC12030627, “Radioiodinated Bicyclic RGD Peptide Derivatives for Enhanced Tumor Accumulation” (Pharmaceuticals, 2025)
